Values of other authors as cited in publication PMC8414988 (Pediatric blood & cancer, 2021).

How the values were obtained:
[1] = cited from earlier work
[2] = daily, 21 days followed by 7-day rest, adults; cited from earlier work

For `CC(=O)c1c(C)c2cnc(Nc3ccc(N4CCNCC4)cn3)nc2n(C2CCCC2)c1=O` [palbociclib], the solubility [1] is listed as “pH-dependent solubility” and the “adult MTD” value [2] is listed as 125 mg.
